According to patent US8952024B2, “Herbicidal pyrimidone derivatives” (E I du Pont de Nemours and Company, priority 2009, dated 2015):

What was measured:
Assay type in all cases: in vivo
[1] = system: johnsongrass (Sorghum halepense); test: Test B pre-/postemergence plant response
Excerpt: (§1) Seeds of plant species selected from blackgrass (Alopecurus myosuroides), downy bromegrass (Bromus tectorum), green foxtail (Setaria viridis), Italian ryegrass (Lolium multiflorum), wheat (Triticum aestivum), wild oat (Avena fatua), deadnettle (henbit deadnettle, Lamium amplexicaule), galium (catchweed bedstraw, Galium aparine), bermudagrass (Cynodon dactylon), Surinam grass (Brachiaria decumbens), cocklebur (Xanthium strumarium), corn (Zea mays), large crabgrass (Digitaria sanguinalis), woolly cupgrass (Eriochloa villosa), giant foxtail (Setaria faberii), goosegrass (Eleusine indica), johnsongrass (Sorghum halepense), kochia (Kochia scoparia), lambsquarters (Chenopodium album), morningglory (Ipomoea coccinea), nightshade (eastern black nightshade, Solanum ptycanthum), yellow nutsedge (Cyperus esculentus), pigweed (Amaranthus retroflexus), ragweed (common ragweed, Ambrosia elatior), Russian thistle (Salsola kali), soybean (Glycine max), sunflower (common oilseed sunflower, Helianthus annuus) and velvetleaf (Abutilon theophrasti) were planted into a blend of loam soil and sand and treated preemergence with test compounds formulated in a non-phytotoxic solvent mixture which included a surfactant.
(§2) At the same time, plants selected from these crop and weed species and also winter barley (Hordeum vulgare), canarygrass (Phalaris minor), chickweed (Stellaria media) and windgrass (Apera spica-venti) were planted in pots containing Redi-Earth® planting medium (Scotts Company, 14111 Scottslawn Road, Marysville, Ohio 43041) comprising spaghnum peat moss, vermiculite, wetting agent and starter nutrients and treated with postemergence applications of some of the test chemicals formulated in the same manner. Plants ranged in height from 2 to 18 cm (1- to 4-leaf stage) for postemergence treatments.
(§3) Treated plants and controls were maintained in a greenhouse for 13 to 15 days, after which time all treated plants were visually evaluated and compared to controls. Plant response ratings, summarized in Table B, are based on a scale of 0 to 100 where 0 is no effect and 100 is complete control. A dash (-) response means no test result.

soybean (Glycine max) = test: Test B pre-/postemergence plant response
Excerpt: as §1, §2, §3

[2] = system: blackgrass (Alopecurus myosuroides); test: Test B pre-/postemergence plant response
Excerpt: as §1, §2, §3

[3] = system: green foxtail (Setaria viridis); test: Test B pre-/postemergence plant response
Excerpt: as §1, §2, §3

[4] = system: giant foxtail (Setaria faberii); test: Test B pre-/postemergence plant response
Excerpt: as §1, §2, §3

[5] = system: ragweed (common ragweed, Ambrosia elatior); test: Test B pre-/postemergence plant response
Excerpt: as §1, §2, §3

[6] = system: pigweed (Amaranthus retroflexus); test: Test B pre-/postemergence plant response
Excerpt: as §1, §2, §3

[7] = system: velvetleaf (Abutilon theophrasti); test: Test B pre-/postemergence plant response
Excerpt: as §1, §2, §3

corn (Zea mays) = test: Test B pre-/postemergence plant response
Excerpt: as §1, §2, §3

[8] = system: goosegrass (Eleusine indica); test: Test B pre-/postemergence plant response
Excerpt: as §1, §2, §3

[9] = system: Italian ryegrass (Lolium multiflorum); test: Test B pre-/postemergence plant response
Excerpt: as §1, §2, §3

[10] = system: wheat (Triticum aestivum); test: Test B pre-/postemergence plant response
Excerpt: as §1, §2, §3

[11] = system: morningglory (Ipomoea coccinea); test: Test B pre-/postemergence plant response
Excerpt: as §1, §2, §3

[12] = system: bermudagrass (Cynodon dactylon); test: Test B pre-/postemergence plant response
Excerpt: as §1, §2, §3

[13] = system: downy bromegrass (Bromus tectorum); test: Test B pre-/postemergence plant response
Excerpt: as §1, §2, §3

[14] = system: chickweed (Stellaria media); test: Test B postemergence plant response; conditions: Postemergence
Outline: (§4)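 Visual ratings from 0 (no effect) to 100 (complete control), made against controls 13–15 days after treatment, kept in a greenhouse. Compounds were applied postemergence to potted plants at the 1- to 4-leaf stage (2–18 cm).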

[15] = system: winter barley (Hordeum vulgare); test: Test B postemergence plant response; conditions: Postemergence
Outline: as §4

[16] = system: canarygrass (Phalaris minor); test: Test B postemergence plant response; conditions: Postemergence
Outline: as §4

[17] = 250 g ai/ha, Preemergence, 0 to 100 scale
[18] = Postemergence, 31 g ai/ha, scale 0 to 100 (0 no effect, 100 complete control)
[19] = Postemergence, 62 g ai/ha, scale 0 (no effect) to 100 (complete control), 13 to 15 days
[20] = Postemergence, 250 g ai/ha, scale 0 to 100
[21] = Preemergence, 31 g ai/ha, scale 0 to 100 (0 no effect, 100 complete control)
[22] = Preemergence, 62 g ai/ha, scale 0 to 100, 0 no effect, 100 complete control
[23] = Preemergence, 125 g ai/ha, 0 to 100 scale
[24] = Postemergence, 125 g ai/ha, visual rating after 13 to 15 days, scale 0 (no effect) to 100 (complete control)
[25] = 31 g ai/ha, scale 0 to 100 (0 no effect, 100 complete control)
[26] = 62 g ai/ha, scale 0 (no effect) to 100 (complete control), 13 to 15 days
[27] = 125 g ai/ha, visual rating after 13 to 15 days, scale 0 (no effect) to 100 (complete control)

5-[(1-ethyl-5-hydroxy-1H-pyrazol-4-yl)carbonyl]-2-phenyl-3-(phenylmethyl)-4(3H)-pyrimidinone [Compound 20]
Plant response rating, Johnsongrass [1, 17]: 10 | Plant response rating, Johnsongrass [1, 18]: 0 | Plant response rating, Johnsongrass [1, 19]: 0 | Johnsongrass plant response rating [1, 20]: 15 | Plant response rating, Johnsongrass [1, 21]: 0 | Plant response rating, Johnsongrass [1, 22]: 0 | Johnsongrass plant response rating [1, 23]: 0 | Plant response rating, Soybean (soybean (Glycine max); [17]): 50 | Plant response rating, Soybean (soybean (Glycine max); [18]): 65 | Plant response rating, Soybean (soybean (Glycine max); [19]): 70 | Plant response rating, Soybean (soybean (Glycine max); [24]): 80 | Soybean plant response rating (soybean (Glycine max); [20]): 90 | Plant response rating, Soybean (soybean (Glycine max); [21]): 0 | Plant response rating, Soybean (soybean (Glycine max); [22]): 30 | Soybean plant response rating (soybean (Glycine max); [23]): 35 | Plant response rating, Blackgrass [2, 17]: 0 | Plant response rating, Blackgrass [2, 18]: 0 | Plant response rating, Blackgrass [2, 19]: 0 | Plant response rating, Blackgrass [2, 24]: 0 | Blackgrass plant response rating [2, 20]: 5 | Plant response rating, Blackgrass [2, 21]: 0 | Plant response rating, Blackgrass [2, 22]: 0 | Blackgrass plant response rating [2, 23]: 0 | Plant response rating, Foxtail, Green [3, 17]: 0 | Plant response rating, Foxtail, Green [3, 18]: 5 | Plant response rating, Foxtail, Green [3, 19]: 10 | Plant response rating, Foxtail, Green [3, 24]: 35 | Foxtail, Green plant response rating [3, 20]: 50 | Plant response rating, Foxtail, Green [3, 21]: 0 | Plant response rating, Foxtail, Green [3, 22]: 0 | Foxtail, Green plant response rating [3, 23]: 0 | Plant response rating, Foxtail, Giant [4, 17]: 0 | Plant response rating, Foxtail, Giant [4, 18]: 15 | Plant response rating, Foxtail, Giant [4, 19]: 45 | Plant response rating, Foxtail, Giant [4, 24]: 60 | Foxtail, Giant plant response rating [4, 20]: 65 | Plant response rating, Foxtail, Giant [4, 21]: 0 | Plant response rating, Foxtail, Giant [4, 22]: 0 | Foxtail, Giant plant response rating [4, 23]: 0 | Plant response rating, Ragweed [5, 17]: 90 | Plant response rating, Ragweed [5, 18]: 80 | Plant response rating, Ragweed [5, 19]: 85 | Plant response rating, Ragweed [5, 24]: 98 | Ragweed plant response rating [5, 20]: 100 | Plant response rating, Ragweed [5, 21]: 65 | Plant response rating, Ragweed [5, 22]: 65 | Ragweed plant response rating [5, 23]: 90 | Plant response rating, Pigweed [6, 17]: 95 | Plant response rating, Pigweed [6, 18]: 75 | Plant response rating, Pigweed [6, 19]: 90 | Plant response rating, Pigweed [6, 24]: 100 | Pigweed plant response rating [6, 20]: 100 | Plant response rating, Pigweed [6, 21]: 85 | Pigweed plant response rating [6, 23]: 90 | Plant response rating, Velvetleaf [7, 17]: 100 | Plant response rating, Velvetleaf [7, 18]: 95 | Plant response rating, Velvetleaf [7, 19]: 100 | Plant response rating, Velvetleaf [7, 24]: 100 | Velvetleaf plant response rating [7, 20]: 100 | Plant response rating, Velvetleaf [7, 21]: 50 | Plant response rating, Velvetleaf [7, 22]: 90 | Velvetleaf plant response rating [7, 23]: 90 | Plant response rating, Corn (corn (Zea mays); [17]): 5 | Plant response rating, Corn (corn (Zea mays); [18]): 0 | Plant response rating, Corn (corn (Zea mays); [19]): 0 | Plant response rating, Corn (corn (Zea mays); [24]): 10 | Corn plant response rating (corn (Zea mays); [20]): 15 | Plant response rating, Corn (corn (Zea mays); [21]): 0 | Plant response rating, Corn (corn (Zea mays); [22]): 0 | Corn plant response rating (corn (Zea mays); [23]): 0 | Plant response rating, Goosegrass [8, 17]: 98 | Plant response rating, Goosegrass [8, 18]: 15 | Plant response rating, Goosegrass [8, 19]: 50 | Plant response rating, Goosegrass [8, 24]: 70 | Goosegrass plant response rating [8, 20]: 95 | Plant response rating, Goosegrass [8, 21]: 30 | Goosegrass plant response rating [8, 23]: 85 | Plant response rating, Ryegrass, Italian [9, 17]: 0 | Plant response rating, Ryegrass, Italian [9, 18]: 0 | Plant response rating, Ryegrass, Italian [9, 19]: 0 | Plant response rating, Ryegrass, Italian [9, 24]: 5 | Ryegrass, Italian plant response rating [9, 20]: 5 | Plant response rating, Ryegrass, Italian [9, 21]: 0 | Plant response rating, Ryegrass, Italian [9, 22]: 0 | Ryegrass, Italian plant response rating [9, 23]: 0 | Plant response rating, Wheat [10, 17]: 0 | Plant response rating, Wheat [10, 18]: 0 | Plant response rating, Wheat [10, 19]: 0 | Plant response rating, Wheat [10, 24]: 10 | Wheat plant response rating [10, 20]: 30 | Plant response rating, Wheat [10, 21]: 0 | Plant response rating, Wheat [10, 22]: 0 | Wheat plant response rating [10, 23]: 0 | Plant response rating, Morningglory [11, 17]: 100 | Plant response rating, Morningglory [11, 18]: 15 | Plant response rating, Morningglory [11, 19]: 20 | Plant response rating, Morningglory [11, 24]: 55 | Morningglory plant response rating [11, 20]: 70 | Plant response rating, Morningglory [11, 21]: 100 | Plant response rating, Morningglory [11, 22]: 100 | Morningglory plant response rating [11, 23]: 100 | Plant response rating, Bermudagrass [12, 17]: 90 | Plant response rating, Bermudagrass [12, 18]: 15 | Plant response rating, Bermudagrass [12, 19]: 25 | Plant response rating, Bermudagrass ([12]; Postemergence, 125 g ai/ha, scale 0 to 100 (0 no effect, 100 complete control), 13 to 15 days): 70 | Bermudagrass plant response rating [12, 20]: 80 | Plant response rating, Bermudagrass [12, 21]: 10 | Plant response rating, Bermudagrass [12, 22]: 70 | Bermudagrass plant response rating [12, 23]: 80 | Plant response rating, Bromegrass, Downy [13, 17]: 0 | Plant response rating, Bromegrass, Downy [13, 18]: 0 | Plant response rating, Bromegrass, Downy [13, 19]: 0 | Plant response rating, Bromegrass, Downy [13, 24]: 0 | Bromegrass, Downy plant response rating [13, 20]: 45 | Plant response rating, Bromegrass, Downy [13, 21]: 0 | Plant response rating, Bromegrass, Downy [13, 22]: 0 | Bromegrass, Downy plant response rating [13, 23]: 0 | Plant response rating, Chickweed [14, 25]: 90 | Plant response rating, Chickweed [14, 26]: 98 | Plant response rating, Chickweed [14, 27]: 98 | Chickweed plant response rating ([14]; 250 g ai/ha, scale 0 to 100): 100 | Plant response rating, Barley [15, 25]: 0 | Plant response rating, Barley [15, 26]: 0 | Plant response rating, Barley ([15]; 125 g ai/ha, scale 0 to 100 (0 no effect, 100 complete control), 13 to 15 days): 0 | Barley plant response rating ([15]; 250 g ai/ha, scale 0 to 100): 0 | Plant response rating, Canarygrass [16, 25]: 0 | Plant response rating, Canarygrass [16, 26]: 0 | Plant response rating, Canarygrass [16, 27]: 0 | Canarygrass plant response rating ([16]; 250 g ai/ha, scale 0 to 100): 5
